# Measured values: patent publication US11130793B2, “GLP-1/GLP-2 dual agonists” (Zealand Pharma A/S, priority 2016, dated 2021)
# pEC50: −log10 of the molar value. Square brackets hold non-standard residues; d marks the D form. Peptide text beside a SMILES is read from it. Aib = CC(C)(N)C(=O)O
# Columns and labels:
# human GLP-2 receptor = target: T1, human GLP-2 receptor (Homo sapiens, UniProt O95838, D470N); test: GLP-2 receptor potency assay (cAMP AlphaScreen, HEK293 cells stably expressing GLP-2R); assay type: cell-based; details: cAMP response, HEK293 cells expressing human GLP-2R
# T1 sequence (O95838 1-553 D470N): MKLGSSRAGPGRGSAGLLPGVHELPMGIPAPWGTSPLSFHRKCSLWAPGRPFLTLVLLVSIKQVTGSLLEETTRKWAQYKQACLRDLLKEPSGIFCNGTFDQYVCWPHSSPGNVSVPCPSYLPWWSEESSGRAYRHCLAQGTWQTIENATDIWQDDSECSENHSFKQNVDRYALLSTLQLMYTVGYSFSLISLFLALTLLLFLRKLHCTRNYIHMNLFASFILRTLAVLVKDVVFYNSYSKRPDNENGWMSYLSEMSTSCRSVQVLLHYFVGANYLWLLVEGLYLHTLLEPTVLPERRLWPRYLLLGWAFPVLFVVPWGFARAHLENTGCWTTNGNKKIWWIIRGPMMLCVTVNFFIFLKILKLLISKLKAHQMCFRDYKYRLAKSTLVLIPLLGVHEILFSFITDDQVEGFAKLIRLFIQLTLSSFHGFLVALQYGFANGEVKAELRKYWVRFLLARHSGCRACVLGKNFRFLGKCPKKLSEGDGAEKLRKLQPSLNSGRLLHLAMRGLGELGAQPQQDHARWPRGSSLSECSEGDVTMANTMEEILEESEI
# From the text: (§1) One useful in vitro assay for measuring GLP-1 and GLP-2 receptor activity is quantitation of cAMP, i.e. 3′-5′-cyclic adenosine monophosphate, which is a second messenger essential in many biological processes, and one of the most ubiquitous mechanisms for regulating cellular functions. […] Test compounds eliciting an increase in the intracellular level of cAMP can be tested in these assays, and the response normalized relative to a positive and negative control (vehicle) to calculate the EC50 and maximal response from the concentration response curve using the 4-parameter logistic (4PL) nonlinear model for curve fitting.
# The hGLP2-R was purchased from MRC-geneservice, Babraham, Cambridge as an Image clone: 5363415 (11924-I17). For subcloning into a mammalian expression vector, primers for subcloning were obtained from DNA-Technology, Risskov, Denmark. The 5′ and 3′ primers used for the PCR reaction include terminal restriction sites for cloning and the context of the 5′ primer is modified to a Kozak consensus without changing the sequence of the product encoded by the ORF. A standard PCR reaction was run using Image clone 5363415 (11924-117) as a template with the above mentioned primers and Polymerase Herculase II Fusion in a total vol. of 50 μl. The generated PCR product was purified using GFX PCR and Gel band purification kit, digested with restriction enzymes and cloned into the mammalian expression vector using Rapid DNA Ligation Kit. Ligation reaction was transformed to XL10 Gold Ultracompetent cells and colonies were picked for DNA production using Endofree Plasmid maxi kit. Subsequent sequence analysis was conducted by MWG Eurofins, Germany.
# HEK293 cells were transfected using the Lipofectamine PLUS transfection method. The day before transfection, HEK293 cells were seeded in two T75 flasks at a density of 2×10^6 cells/T75 flask in cell culturing medium without antibiotics. On the day of transfection, cells were washed with 1×DPBS and medium was replaced with Optimem to a volume of 5 mL/T75 flask before addition of Lipofectamine-plasmid complexes were added gently and drop wise to the cells in T75 flasks and replaced with growth medium after 3 hours and again to growth medium supplemented with 500 μg/mL G418 after 24 hours. Following 4 weeks in G418 selection, clones were picked and tested in a functional GLP-2 receptor potency assay as described below.
# (§2) The cAMP AlphaScreen assay from Perkin Elmer was used to quantitate the cAMP response to activation of the GLP1 and GLP2 receptor, respectively. […] Data from test compounds eliciting an increase in the intracellular level of cAMP were normalized relative to the positive and negative control (vehicle) to calculate the EC50 and maximal response from the concentration response curve.
# human GLP-1 receptor = target: T2, human GLP-1 receptor (Homo sapiens, UniProt P43220); test: GLP-1 receptor potency assay (cAMP AlphaScreen, HEK293 cells stably expressing GLP-1R); assay type: cell-based; details: cAMP response, HEK293 cells expressing human GLP-1R; read-out: EC50 GLP-1
# T2 construct: expressed in transfected cells
# T2 sequence (P43220 24-463): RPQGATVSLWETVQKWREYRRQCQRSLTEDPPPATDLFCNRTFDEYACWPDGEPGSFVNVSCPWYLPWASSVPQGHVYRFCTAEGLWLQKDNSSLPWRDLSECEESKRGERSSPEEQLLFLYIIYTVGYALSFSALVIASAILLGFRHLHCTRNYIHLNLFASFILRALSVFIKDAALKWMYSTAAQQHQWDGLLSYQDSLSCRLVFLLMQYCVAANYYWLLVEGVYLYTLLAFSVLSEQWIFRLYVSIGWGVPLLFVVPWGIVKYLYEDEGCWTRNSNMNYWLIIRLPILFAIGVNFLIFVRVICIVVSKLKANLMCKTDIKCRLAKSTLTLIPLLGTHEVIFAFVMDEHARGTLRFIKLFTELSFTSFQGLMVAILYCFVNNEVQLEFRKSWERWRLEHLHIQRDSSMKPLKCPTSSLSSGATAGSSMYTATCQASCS
# From the text: as §1
# The cDNA encoding the human glucagon-like peptide 1 receptor (GLP-1R) (primary accession number P43220) was cloned from the cDNA BC112126 (MGC:138331/IMAGE:8327594). The DNA encoding the GLP-1-R was amplified by PCR using primers encoding terminal restriction sites for subcloning. The 5′-end primers additionally encoded a near Kozak consensus sequence to ensure efficient translation. […] The PCR products encoding the GLP-1-R were subcloned into a mammalian expression vector containing a neomycin (G418) resistance marker. The mammalian expression vectors encoding the GLP-1-R were transfected into HEK293 cells by a standard calcium phosphate transfection method. 48 hours post-transfection, cells were seeded for limited dilution cloning and selected with 1 mg/ml G418 in the culture medium. Following 3 weeks in G418 selection clones were picked and tested in a functional GLP-1 receptor potency assay as described below.
# as §2
SMILES,pEC50 (human GLP-2 receptor),pEC50 (human GLP-1 receptor)
CC[C@H](C)[C@H](NC(=O)[C@H](Cc1ccccc1)NC(=O)[C@H](CC(=O)O)NC(=O)[C@H](CCCNC(=N)N)NC(=O)[C@H](C)NC(=O)[C@H](C)NC(=O)[C@H](CCC(N)=O)NC(=O)[C@H](CCC(=O)O)NC(=O)[C@H](CC(=O)O)NC(=O)[C@H](CC(C)C)NC(=O)[C@@H](NC(=O)[C@@H](NC(=O)[C@H](C)NC(=O)[C@H](CC(C)C)NC(=O)[C@H](CCC(=O)O)NC(=O)[C@H](CO)NC(=O)[C@@H](NC(=O)[C@H](Cc1ccccc1)NC(=O)[C@@H](NC(=O)CNC(=O)[C@H](CCC(=O)O)NC(=O)C(C)(C)NC(=O)[C@@H](N)Cc1c[nH]cn1)[C@@H](C)O)[C@@H](C)O)[C@@H](C)O)[C@@H](C)CC)C(=O)N[C@@H](C)C(=O)N[C@@H](Cc1c[nH]c2ccccc12)C(=O)N[C@@H](CC(C)C)C(=O)N[C@H](C(=O)N[C@@H](CCCNC(=N)N)C(=O)N[C@@H](Cc1c[nH]cn1)C(=O)N[C@@H](CCCCN)C(=O)N[C@H](C(=O)N[C@H](C(=O)N[C@@H](CC(=O)O)C(=O)O)[C@@H](C)O)[C@@H](C)CC)[C@@H](C)CC [Compound 17] (H-H[Aib]EGTFTSELATILDEQAARDFIAWLIRHKITD-OH),10.18,11.22
CC[C@H](C)[C@H](NC(=O)[C@H](CC(C)C)NC(=O)[C@H](Cc1c[nH]c2ccccc12)NC(=O)[C@H](C)NC(=O)[C@@H](NC(=O)[C@H](Cc1ccccc1)NC(=O)[C@H](CC(=O)O)NC(=O)[C@H](CCCNC(=N)N)NC(=O)[C@H](C)NC(=O)[C@H](C)NC(=O)[C@H](CCC(N)=O)NC(=O)[C@H](CCC(=O)O)NC(=O)[C@H](CC(=O)O)NC(=O)[C@H](CC(C)C)NC(=O)[C@@H](NC(=O)[C@@H](NC(=O)[C@H](C)NC(=O)[C@H](CC(C)C)NC(=O)[C@H](CCC(=O)O)NC(=O)[C@H](CO)NC(=O)[C@@H](NC(=O)[C@H](Cc1ccccc1)NC(=O)[C@@H](NC(=O)CNC(=O)[C@H](CCC(=O)O)NC(=O)C(C)(C)NC(=O)[C@@H](N)Cc1c[nH]cn1)[C@@H](C)O)[C@@H](C)O)[C@@H](C)O)[C@@H](C)CC)[C@@H](C)CC)C(=O)N[C@@H](C)C(=O)N[C@@H](CCC(N)=O)C(=O)N[C@@H](CCCCN)C(=O)N[C@H](C(=O)N[C@H](C(=O)N[C@@H](CC(=O)O)C(=O)O)[C@@H](C)O)[C@@H](C)CC [Compound 19] (H-H[Aib]EGTFTSELATILDEQAARDFIAWLIAQKITD-OH),9.82,11.30
CC[C@H](C)[C@H](NC(=O)[C@H](CC(C)C)NC(=O)[C@H](Cc1c[nH]c2ccccc12)NC(=O)[C@H](C)NC(=O)[C@@H](NC(=O)[C@H](Cc1ccccc1)NC(=O)[C@H](CC(=O)O)NC(=O)[C@H](CCCNC(=N)N)NC(=O)[C@H](C)NC(=O)[C@H](C)NC(=O)[C@H](CCC(N)=O)NC(=O)[C@H](CCC(=O)O)NC(=O)[C@H](CC(=O)O)NC(=O)[C@H](CC(C)C)NC(=O)[C@@H](NC(=O)[C@@H](NC(=O)[C@H](C)NC(=O)[C@H](CC(C)C)NC(=O)[C@H](CCC(=O)O)NC(=O)[C@H](CO)NC(=O)[C@@H](NC(=O)[C@H](Cc1ccccc1)NC(=O)[C@@H](NC(=O)CNC(=O)[C@H](CCC(=O)O)NC(=O)C(C)(C)NC(=O)[C@@H](N)Cc1c[nH]cn1)[C@@H](C)O)[C@@H](C)O)[C@@H](C)O)[C@@H](C)CC)[C@@H](C)CC)C(=O)N[C@@H](C)C(=O)N[C@@H](Cc1ccc(O)cc1)C(=O)N[C@@H](CCCCN)C(=O)N[C@H](C(=O)N[C@H](C(=O)N[C@@H](CC(=O)O)C(=O)O)[C@@H](C)O)[C@@H](C)CC [Compound 20] (H-H[Aib]EGTFTSELATILDEQAARDFIAWLIAYKITD-OH),9.59,10.92

# These reach a higher pEC50 (human GLP-2 receptor). Values come first.
pEC50 (human GLP-2 receptor),pEC50 (human GLP-1 receptor),SMILES
10.42,11.30,CC[C@H](C)[C@H](NC(=O)[C@H](Cc1ccccc1)NC(=O)[C@H](CC(=O)O)NC(=O)[C@H](CCCNC(=N)N)NC(=O)[C@H](C)NC(=O)[C@H](C)NC(=O)[C@H](CCC(N)=O)NC(=O)[C@H](CCC(=O)O)NC(=O)[C@H](CC(=O)O)NC(=O)[C@H](CC(C)C)NC(=O)[C@@H](NC(=O)[C@@H](NC(=O)[C@H](C)NC(=O)[C@H](CC(C)C)NC(=O)[C@H](CCC(=O)O)NC(=O)[C@H](CO)NC(=O)[C@@H](NC(=O)[C@H](Cc1ccccc1)NC(=O)[C@@H](NC(=O)CNC(=O)[C@H](CCC(=O)O)NC(=O)C(C)(C)NC(=O)[C@@H](N)Cc1c[nH]cn1)[C@@H](C)O)[C@@H](C)O)[C@@H](C)O)[C@@H](C)CC)C(=O)N[C@@H](C)C(=O)N[C@@H](Cc1c[nH]c2ccccc12)C(=O)N[C@@H](CC(C)C)C(=O)N[C@H](C(=O)N[C@@H](CCC(N)=O)C(=O)N[C@@H](Cc1c[nH]cn1)C(=O)N[C@@H](CCCCN)C(=O)N[C@H](C(=O)N[C@H](C(=O)N[C@@H](CC(=O)O)C(=O)O)[C@@H](C)O)[C@@H](C)CC)[C@@H](C)CC [Compound 15] (H-H[Aib]EGTFTSELATILDEQAARDFIAWLIQHKITD-OH)
10.59,11.22,CC[C@H](C)[C@H](NC(=O)[C@H](Cc1ccccc1)NC(=O)[C@H](CC(=O)O)NC(=O)[C@H](CCCNC(=N)N)NC(=O)[C@H](C)NC(=O)[C@H](C)NC(=O)[C@H](CCC(N)=O)NC(=O)[C@H](CCC(=O)O)NC(=O)[C@H](CC(=O)O)NC(=O)[C@H](CC(C)C)NC(=O)[C@@H](NC(=O)[C@@H](NC(=O)[C@H](C)NC(=O)[C@H](CC(C)C)NC(=O)[C@H](CCC(=O)O)NC(=O)[C@H](CO)NC(=O)[C@@H](NC(=O)[C@H](Cc1ccccc1)NC(=O)[C@@H](NC(=O)CNC(=O)[C@H](CCC(=O)O)NC(=O)C(C)(C)NC(=O)[C@@H](N)Cc1c[nH]cn1)[C@@H](C)O)[C@@H](C)O)[C@@H](C)O)[C@@H](C)CC)C(=O)N[C@@H](C)C(=O)N[C@@H](Cc1c[nH]c2ccccc12)C(=O)N[C@@H](CC(C)C)C(=O)N[C@H](C(=O)N[C@@H](CCCCN)C(=O)N[C@@H](Cc1c[nH]cn1)C(=O)N[C@@H](CCCCN)C(=O)N[C@H](C(=O)N[C@H](C(=O)N[C@@H](CC(=O)O)C(=O)O)[C@@H](C)O)[C@@H](C)CC)[C@@H](C)CC [Compound 16] (H-H[Aib]EGTFTSELATILDEQAARDFIAWLIKHKITD-OH)
10.27,11.22,CC[C@H](C)[C@H](NC(=O)[C@H](Cc1ccccc1)NC(=O)[C@H](CC(=O)O)NC(=O)[C@H](CCCNC(=N)N)NC(=O)[C@H](C)NC(=O)[C@H](C)NC(=O)[C@H](CCC(N)=O)NC(=O)[C@H](CCC(=O)O)NC(=O)[C@H](CC(=O)O)NC(=O)[C@H](CC(C)C)NC(=O)[C@@H](NC(=O)[C@@H](NC(=O)[C@H](C)NC(=O)[C@H](CC(C)C)NC(=O)[C@H](CCC(=O)O)NC(=O)[C@H](CO)NC(=O)[C@@H](NC(=O)[C@H](Cc1ccccc1)NC(=O)[C@@H](NC(=O)CNC(=O)[C@H](CCC(=O)O)NC(=O)C(C)(C)NC(=O)[C@@H](N)Cc1c[nH]cn1)[C@@H](C)O)[C@@H](C)O)[C@@H](C)O)[C@@H](C)CC)C(=O)N[C@@H](C)C(=O)N[C@@H](Cc1c[nH]c2ccccc12)C(=O)N[C@@H](CC(C)C)C(=O)N[C@H](C(=O)N[C@@H](CO)C(=O)N[C@@H](Cc1c[nH]cn1)C(=O)N[C@@H](CCCCN)C(=O)N[C@H](C(=O)N[C@H](C(=O)N[C@@H](CC(=O)O)C(=O)O)[C@@H](C)O)[C@@H](C)CC)[C@@H](C)CC [Compound 18] (H-H[Aib]EGTFTSELATILDEQAARDFIAWLISHKITD-OH)
